Laboratory results as given in the supplement of paper PMC4862054.

Experiments:
MDA-MB-453 [1] = details: 72 h
Method in brief: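 Rows with a drug sensitivity score of zero were dropped, and EC50 was taken from the fitted percent-inhibition dose-response curve, censored at the highest concentration. Data were normalised on each plate to vehicle and a positive kill control and checked by Z'-factor. The assay seeded breast cancer cell lines in 20 µl onto 384-well plates pre-loaded with compound in 5 µl medium for 72 h, then added 2.5 µl CellTiter-Blue for 2 h at 37 °C and read fluorescence at 560/590 nm.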

CAL-148 [2] = assay: normalised viability (% of control), CellTiter-Blue; higher = more viable cells (about 100 = DMSO control); details: 100 nM; incubation time: 72 h
Method in brief: (§1)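 The reported figure is normalised viability at a single listed concentration of the series. Breast cancer cell lines (20 µl suspension) went onto 384-well plates holding compound in 5 µl medium for 72 h. CellTiter-Blue (2.5 µl, 2 h, 37 °C) was read by fluorescence at 560/590 nm, and each plate was scaled to vehicle at 100 and a positive kill control at 0.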

MDA-MB-453 [3] = assay: as above; details: 100 nM; incubation time: 72 h
Method in brief: as §1

BT-474 = assay: normalised viability (% of control), CellTiter-Blue; higher = more viable cells (about 100 = DMSO control); details: 100 nM; incubation time: 72 h
Experimental: (§2)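 DSRT, CellTiter-Blue viability, 72 h incubation. Signal is normalised to DMSO and benzethonium chloride controls. Value is the normalised response at dose 3.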

BT-549 = assay: as above; details: 100 nM; incubation time: 72 h
Experimental: as §2

CAL-120 = assay: as above; details: 100 nM; incubation time: 72 h
Experimental: as §2

CAL-148 [4] = assay: as above; details: 10 nM; incubation time: 72 h
Experimental: as §2

CAL-51 [5] = assay: as above; details: 10 nM; incubation time: 72 h
Experimental: as §2

CAL-85-1 [6] = assay: as above; details: 10 nM; incubation time: 72 h
Experimental: as §2

DU-4475 [7] = assay: as above; details: 10 nM; incubation time: 72 h
Experimental: as §2

HCC1143 = assay: as above; details: 100 nM; incubation time: 72 h
Experimental: as §2

HCC1599 = assay: as above; details: 100 nM; incubation time: 72 h
Experimental: as §2

HCC1937 = assay: as above; details: 100 nM; incubation time: 72 h
Experimental: as §2

HDQ-P1 [8] = assay: as above; details: 10 nM; incubation time: 72 h
Experimental: as §2

Hs578T = assay: as above; details: 100 nM; incubation time: 72 h
Experimental: as §2

MDA-MB-231 = assay: as above; details: 100 nM; incubation time: 72 h
Experimental: as §2

MDA-MB-436 = assay: as above; details: 100 nM; incubation time: 72 h
Experimental: as §2

MDA-MB-453 [9] = assay: as above; details: 10 nM; incubation time: 72 h
Experimental: as §2

MDA-MB-468 = assay: as above; details: 100 nM; incubation time: 72 h
Experimental: as §2

MFM-223 = assay: as above; details: 100 nM; incubation time: 72 h
Experimental: as §2

SK-BR-3 = assay: as above; details: 100 nM; incubation time: 72 h
Experimental: as §2

CAL-148 [10] = assay: as above; details: 300 nM; incubation time: 72 h
Experimental: (§3)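 DSRT, CellTiter-Blue viability, 72 h incubation. Signal is normalised to DMSO and benzethonium chloride controls. Value is the normalised response at dose 6.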

CAL-51 [11] = assay: as above; details: 300 nM; incubation time: 72 h
Experimental: as §3

CAL-85-1 [12] = assay: as above; details: 300 nM; incubation time: 72 h
Experimental: as §3

DU-4475 [13] = assay: as above; details: 300 nM; incubation time: 72 h
Experimental: as §3

HDQ-P1 [14] = assay: as above; details: 300 nM; incubation time: 72 h
Experimental: as §3

MDA-MB-453 [15] = assay: as above; details: 300 nM; incubation time: 72 h
Experimental: as §3

CAL-148 [16] = assay: as above; details: 10000 nM; incubation time: 72 h
Experimental: (§4)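 DSRT, CellTiter-Blue viability, 72 h incubation. Signal is normalised to DMSO and benzethonium chloride controls. Value is the normalised response at dose 9.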

CAL-51 [17] = assay: as above; details: 10000 nM; incubation time: 72 h
Experimental: as §4

HDQ-P1 [18] = assay: as above; details: 10000 nM; incubation time: 72 h
Experimental: as §4

MDA-MB-453 [19] = assay: as above; details: 10000 nM; incubation time: 72 h
Experimental: as §4

Row | EC50, CellTiter-Blue viability (MDA-MB-453 [1]) [nM] | SMILES | normalised viability (CAL-148 [2]) [%] | normalised viability (MDA-MB-453 [3]) [%] | normalised viability (BT-474) [%] | normalised viability (BT-549) [%] | normalised viability (CAL-120) [%] | normalised viability (CAL-148 [4]) [%] | normalised viability (CAL-51 [5]) [%] | normalised viability (CAL-85-1 [6]) [%] | normalised viability (DU-4475 [7]) [%] | normalised viability (HCC1143) [%] | normalised viability (HCC1599) [%] | normalised viability (HCC1937) [%] | normalised viability (HDQ-P1 [8]) [%] | normalised viability (Hs578T) [%] | normalised viability (MDA-MB-231) [%] | normalised viability (MDA-MB-436) [%] | normalised viability (MDA-MB-453 [9]) [%] | normalised viability (MDA-MB-468) [%] | normalised viability (MFM-223) [%] | normalised viability (SK-BR-3) [%] | normalised viability (CAL-148 [10]) [%] | normalised viability (CAL-51 [11]) [%] | normalised viability (CAL-85-1 [12]) [%] | normalised viability (DU-4475 [13]) [%] | normalised viability (HDQ-P1 [14]) [%] | normalised viability (MDA-MB-453 [15]) [%] | normalised viability (CAL-148 [16]) [%] | normalised viability (CAL-51 [17]) [%] | normalised viability (HDQ-P1 [18]) [%] | normalised viability (MDA-MB-453 [19]) [%]
1 | 17.1 | COc1ccc(-c2ccc3c(N4CCOC[C@@H]4C)nc(N4CCOC[C@@H]4C)nc3n2)cc1CO [AZD8055] | 30.4 | 21.1 | 52.2 | 44.3 | 32.5 | 80.9 | 67.4 | 79.8 | 102 | 55.8 | 65.9 | 42.6 | 76.8 | 33.7 | 50 | 70.7 | 80.3 | 70 | 26.6 | 23.6 | 10.4 | 16.9 | 28.8 | 29.8 | 26.9 | 15.7 | 3.64 | 6.13 | 22.7 | 12.2
2 | 4230 | CN(C)CCN1C(=O)c2cccc3cc(N)cc(c23)C1=O [Amonafide] | 84.7 | 81 | 119 | 94.9 | 95.4 | 85.2 | 111 | 91.6 | 95.8 | 87 | 102 | 109 | 105 | 84.8 | 88 | 104 | 94.1 | 113 | 87.5 | 76 | 89.8 | 109 | 91.7 | 92.3 | 67.5 | 92.5 | 8.2 | 6.12 | 45.5 | 20.4
